Data as given in US20250179088A9 (ZYMEWORKS BC INC., priority 2020, published 2025).

Assays:
PBMCs = experiment: PBMC assay, IL-6 release (HTRF); format: cell-based; conditions: PBMCs from healthy donors, overnight, IL-6 induction by HTRF, average of quadruplicate
Protocol: Whole peripheral blood was obtained from healthy donors. PBMCs were isolated from peripheral blood by density gradient centrifugation. […] The plasma layer containing PBMCs was poured into a new tube and washed twice. Isolated PBMCs were either used fresh or thawed from previously frozen. 1×10^5 PBMCs were cultured with titrating concentrations of compounds of Formula I overnight followed by assaying for cytokines by homogeneous time resolved fluorescence (HTRF).

TLR7 = target: T1, TLR7 (Homo sapiens, UniProt Q9NYK1); experiment: Reporter gene assay, HEK-Blue TLR7 reporter cells (SEAP)
T1 sequence (Q9NYK1 27-1049): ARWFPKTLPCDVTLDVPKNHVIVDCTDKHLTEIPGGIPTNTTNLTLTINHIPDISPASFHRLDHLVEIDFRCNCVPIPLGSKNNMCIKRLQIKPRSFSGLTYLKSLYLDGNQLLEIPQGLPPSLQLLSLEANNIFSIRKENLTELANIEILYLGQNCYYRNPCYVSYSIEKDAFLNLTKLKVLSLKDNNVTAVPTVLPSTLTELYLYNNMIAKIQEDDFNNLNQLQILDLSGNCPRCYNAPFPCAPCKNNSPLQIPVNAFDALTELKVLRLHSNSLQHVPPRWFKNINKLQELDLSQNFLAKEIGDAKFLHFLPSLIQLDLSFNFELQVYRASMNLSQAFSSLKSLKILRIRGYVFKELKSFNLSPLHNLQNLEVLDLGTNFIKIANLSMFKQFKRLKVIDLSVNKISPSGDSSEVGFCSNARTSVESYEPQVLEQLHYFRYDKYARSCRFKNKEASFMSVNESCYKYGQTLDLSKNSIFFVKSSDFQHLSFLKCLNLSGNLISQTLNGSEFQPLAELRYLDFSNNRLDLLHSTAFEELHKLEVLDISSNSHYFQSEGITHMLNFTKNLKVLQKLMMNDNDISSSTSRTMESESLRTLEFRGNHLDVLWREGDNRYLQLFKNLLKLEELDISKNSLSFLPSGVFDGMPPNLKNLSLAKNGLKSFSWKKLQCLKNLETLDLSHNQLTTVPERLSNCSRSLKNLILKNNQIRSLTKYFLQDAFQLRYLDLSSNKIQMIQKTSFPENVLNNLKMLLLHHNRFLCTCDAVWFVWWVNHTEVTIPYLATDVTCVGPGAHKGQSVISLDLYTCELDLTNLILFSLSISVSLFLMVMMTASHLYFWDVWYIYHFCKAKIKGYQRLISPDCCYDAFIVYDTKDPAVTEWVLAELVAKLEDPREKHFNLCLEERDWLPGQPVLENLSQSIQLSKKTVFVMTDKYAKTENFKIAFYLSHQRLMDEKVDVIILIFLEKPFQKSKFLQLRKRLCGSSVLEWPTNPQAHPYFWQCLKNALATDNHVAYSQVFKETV
Protocol: (§1) 3×10^4 HEK-Blue™ TLR7 or 3×10^4 TLR8 reporter cells (InvivoGen, San Diego, CA) were treated with titrated (4-fold) amounts of test compound. […] Cells were incubated overnight at 37° C. and 5% CO2, then absorbance (620 and 655 nm) was read on a Synergy™ H1 microplate reader.

TLR8 = target: T2, TLR8 (Homo sapiens, UniProt Q9NR97); experiment: Reporter gene assay, HEK-Blue TLR8 reporter cells (SEAP)
T2 sequence (Q9NR97 27-1041): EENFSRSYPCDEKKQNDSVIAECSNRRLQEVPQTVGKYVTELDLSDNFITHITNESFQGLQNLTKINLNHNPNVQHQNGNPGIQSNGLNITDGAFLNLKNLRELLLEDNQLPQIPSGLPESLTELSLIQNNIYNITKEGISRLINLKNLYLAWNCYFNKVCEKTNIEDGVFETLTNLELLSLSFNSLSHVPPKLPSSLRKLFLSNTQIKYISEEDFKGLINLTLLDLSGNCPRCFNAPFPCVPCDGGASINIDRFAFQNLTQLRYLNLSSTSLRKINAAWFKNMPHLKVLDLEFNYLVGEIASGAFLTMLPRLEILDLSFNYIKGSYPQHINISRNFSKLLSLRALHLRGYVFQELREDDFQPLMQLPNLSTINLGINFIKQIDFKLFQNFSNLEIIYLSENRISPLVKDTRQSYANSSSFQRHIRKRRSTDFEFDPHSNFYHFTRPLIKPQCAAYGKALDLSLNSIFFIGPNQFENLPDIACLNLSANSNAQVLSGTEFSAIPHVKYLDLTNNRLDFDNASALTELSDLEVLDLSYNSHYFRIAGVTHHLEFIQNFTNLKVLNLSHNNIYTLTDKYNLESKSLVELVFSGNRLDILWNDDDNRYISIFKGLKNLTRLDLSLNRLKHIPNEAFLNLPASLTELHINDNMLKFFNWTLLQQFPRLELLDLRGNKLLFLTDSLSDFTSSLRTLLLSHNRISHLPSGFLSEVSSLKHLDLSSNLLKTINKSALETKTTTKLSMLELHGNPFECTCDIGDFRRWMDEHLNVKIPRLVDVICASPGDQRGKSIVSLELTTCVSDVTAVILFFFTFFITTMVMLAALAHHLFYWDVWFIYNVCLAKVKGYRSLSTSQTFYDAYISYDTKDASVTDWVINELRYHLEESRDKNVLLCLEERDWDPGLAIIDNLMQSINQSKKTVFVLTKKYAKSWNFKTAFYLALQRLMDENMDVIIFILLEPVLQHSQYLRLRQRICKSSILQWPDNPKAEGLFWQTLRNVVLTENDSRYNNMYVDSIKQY
Protocol: as §1

Row | Structure (SMILES) | EC50 (PBMCs) [nM] | EC50 (TLR7) [nM] | EC50 (TLR8) [nM]
1 | CCCCc1nc2c(N)nc3ccsc3c2n1Cc1cccc(CO)c1 [Compound 207, (3-((4-amino-2-butyl-1H-imidazo[4,5-d]thieno[3,2-b]pyridin-1-yl)methyl)phenyl)methanol] | > 1000 | 480 | > 1000
2 | CCCCc1nc2c(N)nc3ccsc3c2n1CCCCCN(CC)CC [Compound 175, 2-butyl-1-(5-(diethylamino)pentyl)-1H-imidazo[4,5-d]thieno[3,2-b]pyridin-4-amine] | 99 | 12 | 380
3 | CCCCc1nc2c(N)nc3ccsc3c2n1Cc1ccc(CNc2ccc3c(c2)CCN(C(=O)OC(C)(C)C)C3)cc1 [Compound 261, tert-butyl 6-((4-((4-amino-2-butyl-1H-imidazo[4,5-d]thieno[3,2-b]pyridin-1-yl)methyl)benzyl)amino)-3,4-dihydroisoquinoline-2(1H)-carboxylate] | 602 | 106 | > 1000
4 | CCCCc1nc2c(N)nc3ccsc3c2n1Cc1ccc(CN2CCN(CCNC(=O)OC(C)(C)C)CC2)cc1 [Compound 165, tert-butyl (2-(4-(4-((4-amino-2-butyl-1H-imidazo[4,5-d]thieno[3,2-b]pyridin-1-yl)methyl)benzyl)piperazin-1-yl)ethyl)carbamate] | 65 | 15 | > 1000
5 | CCCCc1nc2c(N)nc3ccsc3c2n1Cc1cccc(CN2CCC(c3ccncc3)CC2)c1 [Compound 198, 2-butyl-1-(3-((4-(pyridin-4-yl)piperidin-1-yl)methyl)benzyl)-1H-imidazo[4,5-d]thieno [3,2-b]pyridin-4-amine] | 280 | 220 | > 1000
6 | CCCCc1nc2c(N)nc3ccsc3c2n1Cc1ccc(C=O)cc1 [Compound 164, 4-((4-amino-2-butyl-1H-imidazo[4,5-d]thieno[3,2-b]pyridin-1-yl)methyl)benzaldehyde] | > 1000 | > 1000 | > 1000
7 | CCCCc1nc2c(N)nc3ccsc3c2n1Cc1ccccc1CN1CCNCC1 [Compound 218, 2-butyl-1-(2-(piperazin-1-ylmethyl)benzyl)-1H-imidazo[4,5-d]thieno[3,2-b]pyridin-4-amine] | > 1000 | > 1000 | > 1000
8 | CCCCc1nc2c(N)nc3ccsc3c2n1Cc1ccc(CN2CCN(C(=O)OC(C)(C)C)CC2)cc1 [Compound 153, tert-butyl 4-(4-((4-amino-2-butyl-1H-imidazo[4,5-d]thieno[3,2-b]pyridin-1-yl)methyl)benzyl)piperazine-1-carboxylate] | 420 | 85 | > 1000
9 | CCCCc1nc2c(N)nc3ccsc3c2n1CCCCCO [Compound 172, 5-(4-amino-2-butyl-1H-imidazo[4,5-d]thieno[3,2-b]pyridin-1-yl)pentan-1-ol] | 580 | 27 | > 1000
10 | CCCCc1nc2c(N)nc3ccsc3c2n1Cc1cccc(CNCC(C)(C)O)c1 [Compound 205, 1-((3-((4-amino-2-butyl-1H-imidazo[4,5-d]thieno[3,2-b]pyridin-1-yl)methyl)benzyl)amino)-2-methylpropan-2-ol] | 160 | 110 | 190
11 | CCCCc1nc2c(N)nc3ccsc3c2n1Cc1nc(CNCc2cc[nH]c2)cs1 [Compound 231, 1-((4-((((1H-pyrrol-3-yl)methyl)amino)methyl)thiazol-2-yl)methyl)-2-butyl-1H-imidazo[4,5-d]thieno[3,2-b]pyridin-4-amine] | 920 | 110 | 580
12 | CCCCc1nc2c(N)nc3ccsc3c2n1Cc1cccc(CN2CCN(C(=O)OC(C)(C)C)CC2)c1 [Compound 196, tert-butyl 4-(3-((4-amino-2-butyl-1H-imidazo[4,5-d]thieno[3,2-b]pyridin-1-yl)methyl)benzyl)piperazine-1-carboxylate] | > 1000 | > 1000 | > 1000
13 | CCCCc1nc2c(N)nc3ccsc3c2n1Cc1ccccc1CNCCCN1CCN(CCCN)CC1 [Compound 215, 1-(2-(((3-(4-(3-aminopropyl)piperazin-1-yl)propyl)amino)methyl)benzyl)-2-butyl-1H-imidazo[4,5-d]thieno[3,2-b]pyridin-4-amine] | > 1000 | > 1000 | > 1000
14 | CCCCc1nc2c(N)nc3ccsc3c2n1CCCCCNCc1cc[nH]c1 [Compound 183, 1-(5-(((1H-pyrrol-3-yl)methyl)amino)pentyl)-2-butyl-1H-imidazo[4,5-d]thieno[3,2-b]pyridin-4-amine] | > 1000 | 34 | > 1000
15 | CCCCc1nc2c(N)nc3ccsc3c2n1Cc1cccc(CNCc2ccc(CO)cc2)c1 [Compound 204, (4-(((3-((4-amino-2-butyl-1H-imidazo[4,5-d]thieno[3,2-b]pyridin-1-yl)methyl)benzyl)amino)methyl)phenyl)methanol] | 200 | 68 | 310
16 | CCCCc1nc2c(N)nc3ccsc3c2n1Cc1ccc(CO)o1 [Compound 253, (5-((4-amino-2-butyl-1H-imidazo[4,5-d]thieno[3,2-b]pyridin-1-yl)methyl)furan-2-yl)methanol] | > 1000 | > 1000 | > 1000
17 | CCNCc1nc2c(N)nc3ccsc3c2n1Cc1ccc(CN(CC)CC)cc1 [Compound 269, 1-(4-((diethylamino)methyl)benzyl)-2-((ethylamino)methyl)-1H-imidazo[4,5-d]thieno [3,2-b]pyridin-4-amine] | 557 | 186 | > 1000
18 | CCCCc1nc2c(N)nc3ccsc3c2n1CCCCCNCCCCCO [Compound 178, 5-((5-(4-amino-2-butyl-1H-imidazo[4,5-d]thieno[3,2-b]pyridin-1-yl)pentyl)amino) pentan-1-ol] | > 1000 | 37 | > 1000
19 | CCCCc1nc2c(N)nc3ccsc3c2n1Cc1ccccc1CN1CCN(CCN2CCOCC2)CC1 [Compound 222, 2-butyl-1-(2-((4-(2-morpholinoethyl)piperazin-1-yl)methyl)benzyl)-1H-imidazo[4,5-d]thieno[3,2-b]pyridin-4-amine] | > 1000 | > 1000 | > 1000
20 | CCCCc1nc2c(N)nc3ccsc3c2n1Cc1cccc(Cn2ccnc2)c1 [Compound 229, 1-(3-((1H-imidazol-1-yl)methyl)benzyl)-2-butyl-1H-imidazo[4,5-d]thieno[3,2-b]pyridin-4-amine] | > 1000 | 420 | > 1000
